# How the values were obtained:
# [1] = biological target: T1, Alpha-1A adrenergic receptor (Homo sapiens, UniProt P35348); type: functional, cell-based
# T1 sequence (P35348 whole entry): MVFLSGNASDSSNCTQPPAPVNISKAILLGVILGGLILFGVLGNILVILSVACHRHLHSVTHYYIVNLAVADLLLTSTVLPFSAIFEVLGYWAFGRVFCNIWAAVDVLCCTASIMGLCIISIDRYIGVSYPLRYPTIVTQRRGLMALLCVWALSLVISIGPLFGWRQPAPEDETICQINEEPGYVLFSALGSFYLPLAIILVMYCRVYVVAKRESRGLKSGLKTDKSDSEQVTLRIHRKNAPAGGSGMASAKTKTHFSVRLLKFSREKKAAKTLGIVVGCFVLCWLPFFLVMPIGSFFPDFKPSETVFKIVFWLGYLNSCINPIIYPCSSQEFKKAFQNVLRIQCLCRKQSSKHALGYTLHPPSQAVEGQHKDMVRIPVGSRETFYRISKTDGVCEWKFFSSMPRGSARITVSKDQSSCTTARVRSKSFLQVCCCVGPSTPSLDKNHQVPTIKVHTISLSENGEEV
# [2] = biological target: T2, Glucocorticoid receptor (Homo sapiens, UniProt P04150)
# T2 sequence (P04150 whole entry): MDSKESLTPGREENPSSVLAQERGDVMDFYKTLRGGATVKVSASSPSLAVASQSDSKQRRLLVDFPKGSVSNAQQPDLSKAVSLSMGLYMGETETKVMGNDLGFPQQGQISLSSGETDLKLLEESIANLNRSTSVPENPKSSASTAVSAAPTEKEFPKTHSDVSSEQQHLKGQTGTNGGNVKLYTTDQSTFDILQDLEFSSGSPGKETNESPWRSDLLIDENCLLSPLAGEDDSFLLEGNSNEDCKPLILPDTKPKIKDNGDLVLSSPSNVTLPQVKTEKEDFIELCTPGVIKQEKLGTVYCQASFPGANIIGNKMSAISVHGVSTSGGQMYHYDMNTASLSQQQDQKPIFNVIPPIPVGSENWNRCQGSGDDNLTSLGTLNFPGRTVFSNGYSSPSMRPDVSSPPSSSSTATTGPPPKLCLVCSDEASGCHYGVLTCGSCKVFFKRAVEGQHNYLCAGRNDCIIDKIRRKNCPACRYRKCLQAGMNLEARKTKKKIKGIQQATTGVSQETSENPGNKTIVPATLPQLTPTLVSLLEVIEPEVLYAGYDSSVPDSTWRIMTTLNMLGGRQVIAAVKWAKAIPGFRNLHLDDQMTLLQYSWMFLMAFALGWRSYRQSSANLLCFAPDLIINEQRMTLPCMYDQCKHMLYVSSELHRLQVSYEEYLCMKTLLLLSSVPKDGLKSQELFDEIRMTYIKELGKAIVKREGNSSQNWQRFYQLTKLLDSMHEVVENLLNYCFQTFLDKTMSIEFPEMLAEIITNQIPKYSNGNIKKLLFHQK
# [3] = biological target: T3, Progesterone receptor (Homo sapiens, UniProt P06401); type: functional
# T3 sequence (P06401 whole entry): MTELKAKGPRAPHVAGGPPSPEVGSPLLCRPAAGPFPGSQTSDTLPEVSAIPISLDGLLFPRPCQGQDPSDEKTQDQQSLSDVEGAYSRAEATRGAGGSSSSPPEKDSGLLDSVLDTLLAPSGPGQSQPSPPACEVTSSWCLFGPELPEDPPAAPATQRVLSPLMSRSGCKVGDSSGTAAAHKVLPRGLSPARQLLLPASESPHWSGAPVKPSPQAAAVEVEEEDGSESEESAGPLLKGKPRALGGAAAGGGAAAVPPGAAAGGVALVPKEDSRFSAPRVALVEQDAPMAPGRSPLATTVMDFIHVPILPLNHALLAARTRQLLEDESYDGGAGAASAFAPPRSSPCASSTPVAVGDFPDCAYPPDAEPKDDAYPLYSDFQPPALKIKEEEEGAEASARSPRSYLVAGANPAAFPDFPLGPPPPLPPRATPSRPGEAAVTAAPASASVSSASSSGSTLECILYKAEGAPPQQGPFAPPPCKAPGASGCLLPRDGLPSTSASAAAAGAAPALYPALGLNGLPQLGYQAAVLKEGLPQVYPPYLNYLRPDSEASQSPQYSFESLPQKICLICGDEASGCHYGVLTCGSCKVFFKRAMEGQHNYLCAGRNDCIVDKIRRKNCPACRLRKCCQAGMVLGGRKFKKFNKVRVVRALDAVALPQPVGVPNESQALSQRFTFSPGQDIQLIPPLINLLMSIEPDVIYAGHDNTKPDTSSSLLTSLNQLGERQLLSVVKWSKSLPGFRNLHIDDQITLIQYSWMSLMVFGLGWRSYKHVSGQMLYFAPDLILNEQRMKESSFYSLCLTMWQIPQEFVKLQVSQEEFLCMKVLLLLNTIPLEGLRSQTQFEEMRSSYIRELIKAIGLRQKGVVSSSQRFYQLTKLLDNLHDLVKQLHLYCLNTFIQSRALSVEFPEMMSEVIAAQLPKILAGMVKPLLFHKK
# [4] = biological target: T1, Alpha-1A adrenergic receptor; type: functional, cell-based; remark: listed apart in the source
# [5] = biological target: T3, Progesterone receptor; type: functional; remark: listed apart in the source
# [6] = biological target: T4, 5-hydroxytryptamine receptor 1A (Homo sapiens, UniProt P08908)
# T4 sequence (P08908 whole entry): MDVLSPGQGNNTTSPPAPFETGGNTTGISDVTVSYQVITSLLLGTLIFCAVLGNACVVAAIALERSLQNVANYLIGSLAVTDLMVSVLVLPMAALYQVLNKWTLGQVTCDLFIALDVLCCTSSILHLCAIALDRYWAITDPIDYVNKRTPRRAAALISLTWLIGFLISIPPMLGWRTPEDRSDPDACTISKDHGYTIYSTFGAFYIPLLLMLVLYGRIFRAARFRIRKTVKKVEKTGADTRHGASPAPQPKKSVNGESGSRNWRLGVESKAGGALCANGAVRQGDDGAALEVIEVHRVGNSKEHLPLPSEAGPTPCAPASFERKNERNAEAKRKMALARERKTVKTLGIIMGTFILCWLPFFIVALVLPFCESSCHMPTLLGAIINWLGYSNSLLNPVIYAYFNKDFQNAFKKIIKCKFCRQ
# Also: assay procedure not described here.
smiles,measurement,setting,value
COC(=O)N[C@H](C(=O)N1CCC[C@H]1c1nc(-c2ccc(-c3ccc(-c4c[nH]c([C@@H]5CCCN5C(=O)[C@@H](NC(=O)OC)C(C)C)n4)cc3)cc2)c[nH]1)C(C)C,AC50,[1],> 30 µM
same,AC50,[2],> 30 µM
same,AC50,[3],> 30 µM
same,AC50,[4],> 30 µM
CC(N)Cc1ccccc1 (stereo unspecified) [AMPHETAMINE],AC50,[5],> 30 µM
same,AC50,[1],> 30 µM
same,AC50,[2],> 30 µM
same,AC50,[3],> 30 µM
same,AC50,[4],> 30 µM
O=C1c2c(O)c(=O)ccn2N([C@@H]2c3ccccc3SCc3c2ccc(F)c3F)[C@@H]2COCCN12 [BALOXAVIR],AC50,[6],> 30 µM
C(=N\NC1=NCCN1)/c1c2ccccc2c(/C=N/NC2=NCCN2)c2ccccc12 [BISANTRENE],AC50,[6],1.65 µM
COc1cc(Nc2c(C#N)cnc3cc(OCCCN4CCN(C)CC4)c(OC)cc23)c(Cl)cc1Cl [BOSUTINIB],AC50,[6],14.2 µM
same,AC50,[2],> 30 µM
N[C@@H](C(=O)N[C@@H]1C(=O)N2C(C(=O)O)=C(Cl)CS[C@H]12)c1ccccc1 [CEFACLOR ANHYDROUS],AC50,[5],> 30 µM
same,AC50,[1],> 30 µM
same,AC50,[2],> 30 µM
same,AC50,[3],> 30 µM
same,AC50,[4],> 30 µM
CCO/N=C(\C(=O)N[C@@H]1C(=O)N2C(C(=O)[O-])=C(Sc3nc(-c4cc[n+](C)cc4)cs3)CS[C@H]12)c1nsc(N)n1 [CEFTAROLINE],AC50,[6],> 30 µM
Cc1cc(O)cc(C)c1Cl [CHLOROXYLENOL],AC50,[6],> 30 µM
CC(=O)OCC(=O)[C@@]1(O)CC[C@H]2[C@@H]3CCC4=CC(=O)CC[C@]4(C)[C@H]3C(=O)C[C@@]21C [CORTISONE ACETATE],AC50,[1],> 30 µM
same,AC50,[4],> 30 µM
C[N+](C)(C)CCCCCCCCCC[N+](C)(C)C [DECAMETHONIUM],AC50,[6],> 30 µM
O=C1c2ccccc2C(=O)C1C(=O)C(c1ccccc1)c1ccccc1 [DIPHENADIONE],AC50,[6],> 30 µM
CCC(=O)O[C@H]1[C@H](O[C@@H]2[C@@H](C)[C@H](O[C@H]3C[C@@](C)(OC)[C@@H](O)[C@H](C)O3)[C@@H](C)C(=O)O[C@H](CC)[C@@](C)(O)[C@H](O)[C@@H](C)C(=O)[C@H](C)C[C@@]2(C)O)O[C@H](C)C[C@@H]1N(C)C [ERYTHROMYCIN PROPIONATE],AC50,[6],15.1 µM
CCOC(=O)c1ccc(O)cc1 [ETHYLPARABEN],AC50,[6],> 30 µM
O=C1[C@H](CC[C@H](O)c2ccc(F)cc2)[C@@H](c2ccc(O)cc2)N1c1ccc(F)cc1 [EZETIMIBE],AC50,[6],> 30 µM
O=C(COc1ccc(Cl)cc1)N1CCN(Cc2ccc3c(c2)OCO3)CC1 [FIPEXIDE],AC50,[6],> 30 µM
Cc1c(-c2ccccc2)oc2c(C(=O)OCCN3CCCCC3)cccc2c1=O [FLAVOXATE],AC50,[6],3.11 µM
CCC(=O)c1c(O)cc(O)cc1O [FLOPROPIONE],AC50,[6],> 30 µM
CC1(C)O[C@@H]2C[C@H]3[C@@H]4C[C@H](F)C5=CC(=O)CC[C@]5(C)[C@H]4[C@@H](O)C[C@]3(C)[C@]2(C(=O)CO)O1 [FLURANDRENOLIDE],AC50,[6],> 30 µM
COc1ccc2c(c1)C(=O)N(CCc1ccc(S(=O)(=O)NC(=O)NC3CCCCC3)cc1)C(=O)C2(C)C [GLIQUIDONE],AC50,[5],> 30 µM
same,AC50,[1],> 30 µM
same,AC50,[2],> 30 µM
same,AC50,[3],> 30 µM
same,AC50,[4],> 30 µM
C#C[C@]1(O)CC[C@H]2[C@@H]3CCC4=CC(=O)CC[C@@H]4[C@H]3CC[C@@]21CC [LEVONORGESTREL],AC50,[6],> 30 µM
OC[C@@H](O)[C@@H](O)[C@H](O)[C@H](O)CO [MANNITOL],AC50,[6],> 30 µM
CN1CCCC(CN2c3ccccc3Sc3ccccc32)C1 (stereo unspecified) [MEPAZINE],AC50,[6],> 30 µM
Sc1ncnc2nc[nH]c12 [MERCAPTOPURINE ANHYDROUS],AC50,[6],> 30 µM
C[N+]1(C)[C@@H]2C[C@@H](OC(=O)[C@H](CO)c3ccccc3)C[C@H]1[C@@H]1O[C@@H]12 [METHSCOPOLAMINE],AC50,[6],> 30 µM
CC(=O)Oc1c(C)cc(OCC(O)CNC(C)C)c(C)c1C (stereo unspecified) [METIPRANOLOL],AC50,[6],> 30 µM
Cc1cccc(C)c1OCC(C)N (stereo unspecified) [MEXILETINE],AC50,[5],> 30 µM
same,AC50,[1],> 30 µM
same,AC50,[3],> 30 µM
same,AC50,[4],> 30 µM
NC(=O)c1ncn([C@@H]2O[C@H](CO)[C@@H](O)[C@H]2O)c1O [MIZORIBINE],AC50,[5],> 30 µM
same,AC50,[1],> 30 µM
same,AC50,[2],> 30 µM
same,AC50,[3],> 30 µM
same,AC50,[4],> 30 µM
O=C1CC[C@@]2(O)[C@H]3Cc4ccc(O)c5c4[C@@]2(CCN3CC2CC2)[C@H]1O5 [NALTREXONE],AC50,[6],> 30 µM
OCCN1CCN(CCCN2c3ccccc3C=Cc3ccccc32)CC1 [OPIPRAMOL],AC50,[5],> 30 µM
same,AC50,[6],9.25 µM
same,AC50,[1],> 30 µM
same,AC50,[2],> 30 µM
same,AC50,[3],> 30 µM
same,AC50,[4],14 µM
CC(N/C(=N\C#N)Nc1ccncc1)C(C)(C)C (stereo unspecified) [PINACIDIL ANHYDROUS],AC50,[6],> 30 µM
CC(O)CO (stereo unspecified) [PROPYLENE GLYCOL],AC50,[6],> 30 µM
CN(C)C(=O)Oc1ccc[n+](C)c1 [PYRIDOSTIGMINE],AC50,[6],> 30 µM
Cc1cc2c(cc1CC(=O)c1sccc1S(=O)(=O)Nc1onc(C)c1Cl)OCO2 [SITAXENTAN],AC50,[6],> 30 µM
CC(C)OC(=O)[C@H](C)N[P@](=O)(OC[C@H]1O[C@@H](n2ccc(=O)[nH]c2=O)[C@](C)(F)[C@@H]1O)Oc1ccccc1 [SOFOSBUVIR],AC50,[6],> 30 µM
CS(=O)(=O)c1ccc([C@@H](O)[C@@H](CO)NC(=O)C(Cl)Cl)cc1 [THIAMPHENICOL],AC50,[5],> 30 µM
same,AC50,[6],> 30 µM
same,AC50,[1],> 30 µM
same,AC50,[2],> 30 µM
same,AC50,[3],> 30 µM
same,AC50,[4],> 30 µM
Cc1ccc(O)c2ncccc12 [TILIQUINOL],AC50,[6],> 30 µM
CC(=O)OC[C@H]1O[C@@H](n2ccc(=O)[nH]c2=O)[C@H](OC(C)=O)[C@@H]1OC(C)=O [URIDINE TRIACETATE],AC50,[6],> 30 µM
CCCS(=O)(=O)Nc1ccc(F)c(C(=O)c2c[nH]c3ncc(-c4ccc(Cl)cc4)cc23)c1F [VEMURAFENIB],AC50,[1],> 30 µM
same,AC50,[2],> 30 µM
same,AC50,[3],23 µM
same,AC50,[4],> 30 µM
CCOC(=O)N[C@@H]1CC[C@@H]2[C@@H](C1)C[C@H]1C(=O)O[C@H](C)[C@H]1[C@H]2/C=C/c1ccc(-c2cccc(F)c2)cn1 [VORAPAXAR],AC50,[6],> 30 µM

# Reference: ChEMBL document CHEMBL5291721, “A preclinical secondary pharmacology resource illuminates target-adverse drug reaction associations of marketed drugs” (Nat Commun, 2023)
